In general, pIC50 refers to the negative decadic logarithm of the IC50, by convention in mol/L. A high value points to a small IC50.

The text below walks through data of BindingDB's records for doi:10.1016/0960-894X(95)00537-3 (1995).

Molecules are shown by their SMILES. pIC50: −log10 of the molar value. A value given as a limit tells only on which side of the number the result lay.

This assay concerns the target Gastrin/cholecystokinin type B receptor (Cavia porcellus). Put plainly: Inhibitory activity towards binding of [125I]Bolton-Hunter-CCK-8 to CCKB receptor in guinea pig cortical tissue.

`Cc1cccc(NC(=O)N[C@H](CCC(=O)OCc2ccccc2)C(=O)N2CCN(C(=O)c3ccccc3)CC2)c1` showed a pIC50 below 5.00.

In turn, `Cc1cccc(NC(=O)N[C@H](COCc2ccccc2)C(=O)N2CCC(C(=O)c3ccc(F)cc3)CC2)c1` [1-{1-((R)-Benzyloxymethyl)-2-[4-(4-fluoro-benzoyl)-piperidin-1-yl]-2-oxo-ethyl}-3-m-tolyl-urea] gave a pIC50 of 6.64. In turn, `Cc1cccc(NC(=O)N[C@H](CCC(=O)OCc2ccccc2)C(=O)N2CCC(NC(=O)c3ccccc3)CC2)c1` [5-(4-Benzoylamino-piperidin-1-yl)-5-(R)-oxo-4-(3-m-tolyl-ureido)-pentanoic acid benzyl ester] had a negative logarithm of the IC50 (pIC50) below 5.00. For the compound `Cc1cccc(NC(=O)N[C@H](COCc2ccccc2)C(=O)N2CCC(C(=O)Nc3ccccc3)CC2)c1` [1-[(R)-3-Benzyloxy-2-(3-m-tolyl-ureido)-propionyl]-piperidine-4-carboxylic acid phenylamide], the negative logarithm of the IC50 (pIC50) is 6.80. Under `Cc1cccc(NC(=O)N[C@H](COC(=O)N(C)C)C(=O)N2CCC(C(=O)c3ccccc3)CC2)c1` [Dimethyl-carbamic acid (R)-3-(4-benzoyl-piperidin-1-yl)-3-oxo-2-(3-m-tolyl-ureido)-propyl ester] stands 5.82; under `Cc1cccc(NC(=O)N[C@H](CCCc2ccccc2)C(=O)N2CCC(C(=O)c3ccccc3)CC2)c1` [1-{1-[(R)-(4-Benzoyl-piperidin-1-yl)-oxo-methyl]-4-phenyl-butyl}-3-m-tolyl-urea], 5.96. Under `CC(C)C[C@H](NC(=O)[C@H](Cc1c[nH]c2ccccc12)NC(=O)OC(C)(C)C)C(=O)N1CCC(Cc2ccccc2)CC1` [[(S)-1-[(S)-1-(4-Benzyl-piperidine-1-carbonyl)-3-methyl-butylcarbamoyl]-2-(1H-indol-3-yl)-ethyl]-carbamic acid tert-butyl ester] stands below 5.00; under `Cc1cccc(NC(=O)N[C@H](COCc2ccccc2)C(=O)N2CCC(Cc3ccccc3)CC2)c1` [1-[(R)-1-Benzyloxymethyl-2-(4-benzyl-piperidin-1-yl)-2-oxo-ethyl]-3-m-tolyl-urea], below 5.23. As to `CC(C)C[C@H](NC(=O)[C@H](Cc1c[nH]c2ccccc12)NC(=O)OC(C)(C)C)C(=O)N1CCC(C(=O)c2ccccc2)CC1` [[(S)-1-[(S)-1-(4-Benzoyl-piperidine-1-carbonyl)-3-methyl-butylcarbamoyl]-2-(1H-indol-3-yl)-ethyl]-carbamic acid tert-butyl ester], the negative-log IC50 (pIC50) was 6.04. `Cc1cccc(NC(=O)N[C@H](COCc2ccccc2)C(=O)N2CCC(C(=O)c3ccccc3)CC2)c1` [1-[(R)-2-(4-Benzoyl-piperidin-1-yl)-1-benzyloxymethyl-2-oxo-ethyl]-3-m-tolyl-urea]: the pIC50 is 6.52. Then `Cc1cccc(NC(=O)N[C@H](COC(=O)N2CCCC2)C(=O)N2CCC(C(=O)c3ccccc3)CC2)c1` [Pyrrolidine-1-carboxylic acid (R)-3-(4-benzoyl-piperidin-1-yl)-3-oxo-2-(3-m-tolyl-ureido)-propyl ester], with 7.00; and `Cc1cccc(NC(=O)N[C@H](COC(=O)N2CCOCC2)C(=O)N2CCC(C(=O)c3ccccc3)CC2)c1` [Morpholine-4-carboxylic acid (R)-3-(4-benzoyl-piperidin-1-yl)-3-oxo-2-(3-m-tolyl-ureido)-propyl ester], with 6.74; and `CCCC[C@@H](NC(=O)Nc1cccc(C)c1)C(=O)N1CCC(C(=O)c2ccccc2)CC1` [1-[(R)-1-(4-Benzoyl-piperidine-1-carbonyl)-pentyl]-3-m-tolyl-urea], with 5.32. The compound `Cc1cccc(NC(=O)N[C@H](CCC(=O)OCc2ccccc2)C(=O)N2CCC(C(=O)Nc3ccccc3)CC2)c1` [5-(R)-Oxo-5-(4-phenylcarbamoyl-piperidin-1-yl)-4-(3-m-tolyl-ureido)-pentanoic acid benzyl ester] gave a pIC50 of 5.70. Then `Cc1cccc(NC(=O)N[C@@H](C(=O)N2CCC(C(=O)c3ccccc3)CC2)[C@@H](C)OCc2ccccc2)c1` [1-{(R)-1-[(R)-(4-Benzoyl-piperidin-1-yl)-oxo-methyl]-2-benzyloxy-propyl}-3-m-tolyl-urea], with 6.36; and `CC(Cc1c[nH]c2ccccc12)(NC(=O)OC1[C@H]2C[C@@H]3C[C@@H](C[C@H]1C3)C2)C(=O)N1CCC(C(=O)c2ccccc2)CC1` (some centres not stated) [[2-(4-Benzoyl-piperidin-1-yl)-1-(1H-indol-3-ylmethyl)-1-methyl-2-oxo-ethyl]-carbamic acid adamantan-2-yl ester], with 5.47; and `Cc1cccc(NC(=O)N[C@H](CS(=O)(=O)Cc2ccccc2)C(=O)N2CCC(C(=O)c3ccccc3)CC2)c1` [1-[(S)-2-(4-Benzoyl-piperidin-1-yl)-2-oxo-1-phenylmethanesulfonylmethyl-ethyl]-3-m-tolyl-urea], with 6.09. In turn, `CC(C)(C)OC(=O)N[C@@H](Cc1c[nH]c2ccccc12)C(=O)N1CCC(C(=O)c2ccccc2)CC1` [[(S)-2-(4-Benzoyl-piperidin-1-yl)-1-(1H-indol-3-ylmethyl)-2-oxo-ethyl]-carbamic acid tert-butyl ester] had a pIC50 below 5.00. Under `Cc1cccc(NC(=O)N[C@H](COC(=O)N2CCCC2)C(=O)N2CCC(C(=O)Nc3ccccc3)CC2)c1` [Pyrrolidine-1-carboxylic acid (R)-3-oxo-3-(4-phenylcarbamoyl-piperidin-1-yl)-2-(3-m-tolyl-ureido)-propyl ester] stands 7.47; under `Cc1cccc(NC(=O)N[C@H](COC(=O)Nc2ccccc2)C(=O)N2CCC(C(=O)c3ccccc3)CC2)c1` [Phenyl-carbamic acid (R)-3-(4-benzoyl-piperidin-1-yl)-3-oxo-2-(3-m-tolyl-ureido)-propyl ester], 6.92. Then `CC(=O)C1CCN(C(=O)[C@@H](COCc2ccccc2)NC(=O)Nc2cccc(C)c2)CC1` [1-[(R)-2-(4-Acetyl-piperidin-1-yl)-1-benzyloxymethyl-2-oxo-ethyl]-3-m-tolyl-urea], with below 5.16; and `Cc1cccc(NC(=O)N[C@H](CCc2ccccc2)C(=O)N2CCC(C(=O)c3ccccc3)CC2)c1` [1-[(R)-1-(4-Benzoyl-piperidine-1-carbonyl)-3-phenyl-propyl]-3-m-tolyl-urea], with 5.41.
